The text below walks through data of US9856252B2, “2-(hetero)aryl-benzimidazole and imidazopyridine derivatives as inhibitors of asparagime emethyl transferase” (Cancer Therapeutics CRC Pty Ltd, priority 2013, dated 2018).

Where a name gives a salt, the structure may show the parent alone.

The experiment has as its target Full-length PRMT5 enzyme (NCBI Reference sequence NP_006100.2) co-expressed with His6-MEP50 (Homo sapiens (Human), UniProt O14744). Briefly: PRMT5 Biochemical Assay. To be noted: histone H4 derived peptide substrate 200 nM, 1 μM S-Adenosyl methionine, 4 hours at 37° C., Transcreener EPIGEN fluorescence polarisation. On the procedure: Compounds of the invention may be tested for in vitro activity in the following assay: A histone H4 derived peptide is used as substrate (amino acid sequence: […]N H2). Full-length PRMT5 enzyme (NCBI Reference sequence NP_006100.2) was co-expressed with His6-MEP50 in insect cells and purified via Nickel immobilized metal affinity and gel filtration chromatography (“the enzyme”).
The 6 μL assay reactions are run in Greiner brand black 384-well low volume plates. All reactions contained assay buffer (phosphate buffered saline, 0.01% (v/v) Tween-20, 0.01% (w/v) albumin from chicken egg white, 1 mM dithiothreitol, 200 nM peptide substrate, 1 μM S-Adenosyl methionine, and 15 ng/reaction enzyme, with the enzyme being omitted from negative control reactions. Compounds were added in a volume of 100 nL from dilution series prepared in DMSO, positive and negative control reactions receiving the same volume DMSO without compound. The plates were sealed with adhesive seals and incubated for 4 hours at 37° C. Reaction progress was measured using the Transcreener™ EPIGEN methyltransferase assay (BellBrook Labs, Madison, Wis.) as recommended by the manufacturer. To each reaction 2 μL detection mix were added, containing coupling enzymes, fluorescence polarisation tracer, and AMP antibody. Plates were incubated for 90 minutes before being read on a PerkinElmer EnVision™ plate reader in fluorescence polarisation mode.

Full-length PRMT5 enzyme (NCBI Reference sequence NP_006100.2) co-expressed with His6-MEP50, sequence (O14744 whole entry): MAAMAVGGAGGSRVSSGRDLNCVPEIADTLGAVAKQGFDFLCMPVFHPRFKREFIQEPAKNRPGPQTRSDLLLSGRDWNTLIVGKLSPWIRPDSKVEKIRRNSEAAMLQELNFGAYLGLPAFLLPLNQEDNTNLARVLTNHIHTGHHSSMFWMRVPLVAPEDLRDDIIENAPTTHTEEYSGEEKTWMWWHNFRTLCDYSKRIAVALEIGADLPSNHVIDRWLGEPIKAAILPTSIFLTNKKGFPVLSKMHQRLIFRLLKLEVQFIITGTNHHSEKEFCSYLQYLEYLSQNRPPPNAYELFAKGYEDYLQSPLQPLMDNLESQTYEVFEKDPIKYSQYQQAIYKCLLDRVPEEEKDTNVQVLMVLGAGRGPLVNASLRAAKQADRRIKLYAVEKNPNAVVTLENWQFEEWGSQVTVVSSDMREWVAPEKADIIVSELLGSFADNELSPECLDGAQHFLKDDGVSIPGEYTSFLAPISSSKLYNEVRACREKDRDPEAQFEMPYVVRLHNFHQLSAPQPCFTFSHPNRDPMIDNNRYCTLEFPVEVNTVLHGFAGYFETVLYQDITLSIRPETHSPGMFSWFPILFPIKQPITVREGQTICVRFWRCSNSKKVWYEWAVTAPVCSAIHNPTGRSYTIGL
Full-length PRMT5 enzyme (NCBI Reference sequence NP_006100.2) co-expressed with His6-MEP50, sequence (Q9BQA1 whole entry partner): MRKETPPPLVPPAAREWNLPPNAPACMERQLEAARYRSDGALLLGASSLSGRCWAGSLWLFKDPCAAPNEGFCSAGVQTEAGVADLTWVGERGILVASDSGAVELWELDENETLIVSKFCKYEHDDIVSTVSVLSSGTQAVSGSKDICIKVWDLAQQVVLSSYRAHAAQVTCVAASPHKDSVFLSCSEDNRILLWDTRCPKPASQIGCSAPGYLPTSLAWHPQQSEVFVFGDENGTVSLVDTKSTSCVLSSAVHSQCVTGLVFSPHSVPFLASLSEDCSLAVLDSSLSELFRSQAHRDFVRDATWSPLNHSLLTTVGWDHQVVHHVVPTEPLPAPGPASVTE

Regarding `CS(=O)(=O)N1CCC(c2cnc3[nH]c(-c4ccc(OCc5ccccc5)cc4)nc3c2)CC1` [Example 83, 2-(4-(benzyloxy)phenyl)-6-(1-(methylsulfonyl)piperidin-4-yl)-3H-imidazo[4,5-b]pyridine], half-maximal inhibition (IC50) was put at 1.11 µM.

Take `CCS(=O)(=O)N1CC=C(c2ccc3nc(-c4ccc(OCc5ccccc5)cc4)[nH]c3n2)CC1` [Example 97, 2-(4-(benzyloxy)phenyl)-5-(1-(ethylsulfonyl)-1,2,3,6-tetrahydropyridin-4-yl)-3H-imidazo[4,5-b]pyridine]: the IC50 is 0.217 µM.

For `NCC1CCCN(c2ccc3nc(-c4ccc(OCc5ccccc5)cc4)[nH]c3n2)C1` (centres unmarked) [Example 50], the IC50 was 0.317 µM.

With `CC(=O)NCCNc1ccc2nc(-c3ccc(OCc4ccccc4)cc3)[nH]c2n1` [Example 22, N-(2-((2-(4-(benzyloxy)phenyl)-3H-imidazo[4,5-b]pyridin-5-yl)amino)ethyl)acetamide], the midpoint of inhibition, the IC50, lay at 0.487 µM.

`c1ccc(OCc2ccc(-c3nc4ccc(C5CCCNC5)nc4[nH]3)cc2)cc1` (centres unmarked) [Example 35, 2-(4-(phenoxymethyl)phenyl)-5-(piperidin-3-yl)-3H-imidazo[4,5-b]pyridine] returned an IC50 of 0.204 µM.

In turn, `Cn1ccc(-c2ccc3nc(-c4ccc(COc5ccccc5)cc4)[nH]c3n2)n1` [Example 38, 5-(1-methyl-1H-pyrazol-3-yl)-2-(4-(phenoxymethyl)phenyl)-3H-imidazo[4,5-b]pyridine] had an IC50 of 2.39 µM.

In the case of `CN(C)c1ccc2nc(-c3ccc(OCc4ccccc4)cc3)[nH]c2n1` [Example 48, 2-(4-(benzyloxy)phenyl)-N,N-dimethyl-3H-imidazo[4,5-b]pyridin-5-amine], half-maximal inhibition (IC50) required 0.45 µM.

`Fc1cc(-c2nc3cc(C4CCNCC4)cnc3[nH]2)ccc1OCc1ccccc1` [Example 65, 2-(4-(benzyloxy)-3-fluorophenyl)-6-(piperidin-4-yl)-3H-imidazo[4,5-b]pyridine]: the IC50 turned out to be 0.276 µM.

For the compound `O=S1(=O)CCN(c2ccc3nc(-c4ccc(OCc5ccccc5)cc4)[nH]c3n2)CC1` [Example 25, 4-(2-(4-(benzyloxy)phenyl)-3H-imidazo[4,5-b]pyridin-5-yl)thiomorpholine 1,1-dioxide], half-maximal inhibition (IC50) was put at 0.619 µM.

In turn, `Fc1cccc(COc2ccc(-c3nc4ccc(N5CCNCC5)nc4[nH]3)cc2)c1` [Example 58] had an IC50 of 0.333 µM.

The compound `O=C(O)c1cc(-c2nc3cc(C4CCNCC4)cnc3[nH]2)ccc1OCc1ccccc1` [Example 67, 2-(benzyloxy)-5-(6-(piperidin-4-yl)-3H-imidazo[4,5-b]pyridin-2-yl)benzoic acid dihydrochloride salt] registered an IC50 of 3.72 µM.

`NC1CCN(c2ccc3nc(-c4ccc(OCc5ccccc5)cc4)[nH]c3n2)CC1` [Example 54] came in with an IC50 of 0.583 µM.

For the compound `CCS(=O)(=O)N1CCN(c2ccc3nc(-c4ccc(OCc5ccccc5)c(-c5ccn[nH]5)c4)[nH]c3n2)CC1` [Example 70], the IC50 turned out to be 1.11 µM.

The compound `CN1CCC(c2cnc3[nH]c(-c4ccc(COc5ccccc5)cc4)nc3c2)CC1` [Example 11, 6-(1-methylpiperidin-4-yl)-2-(4-(phenoxymethyl)phenyl)-3H-imidazo[4,5-b]pyridine] had an IC50 of 0.482 µM.

In turn, `CC(=O)N1CCC(c2cnc3[nH]c(-c4ccc(OCc5ccccc5)cc4)nc3c2)CC1` [Example 13, 1-(4-(2-(4-(Benzyloxy)phenyl)-3H-imidazo[4,5-b]pyridin-6-yl)piperidin-1-yl)ethanone] registered an IC50 of 0.339 µM.

In the case of `O=C(O)Cc1ccnc2[nH]c(-c3ccc(OCc4ccccc4)cc3)nc12` [Example 77, 2-(2-(4-(benzyloxy)phenyl)-3H-imidazo[4,5-b]pyridin-7-yl)acetic acid], the IC50 amounted to 0.901 µM.

For the compound `CN1CCC(c2ccc3nc(-c4ccc(COc5ccccc5)cc4)[nH]c3n2)CC1` [Example 86, 5-(1-methylpiperidin-4-yl)-2-(4-(phenoxymethyl)phenyl)-3H-imidazo[4,5-b]pyridine], the IC50 amounted to 0.151 µM.
